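How tested: cells in 96-well plates exposed to compound for 48 hours at five concentrations. GI50: concentration for 50% inhibition of growth.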 Activity calls are given as the source filed them. Cut-off read from the data, not from the text of the source: active = GI50 up to about 1.1 µM and inactive = higher.
Legend:
Test in all cases: NCI anticancer screen, dose series, 48 h
PC-3 = system: PC-3
DU-145 = system: DU-145
OVCAR-4 = system: OVCAR-4
CAKI-1 = system: CAKI-1
SNB-75 = system: SNB-75
MCF7 = system: MCF7
HL-60 = system: HL-60
SF-539 = system: SF-539
TK-10 = system: TK-10
HCC 2998 = system: HCC 2998
UACC-62 = system: UACC-62
SK-MEL-5 = system: SK-MEL-5
HCT-116 = system: HCT-116
LOX IMVI = system: LOX IMVI
SF-295 = system: SF-295
M14 = system: M14
BT-549 = system: BT-549
EKVX = system: EKVX
SK-OV-3 = system: SK-OV-3

| SMILES | GI50 (PC-3) | GI50 (DU-145) | GI50 (OVCAR-4) | GI50 (CAKI-1) | GI50 (SNB-75) | GI50 (MCF7) | GI50 (HL-60) | GI50 (SF-539) | GI50 (TK-10) | GI50 (HCC 2998) | GI50 (UACC-62) | GI50 (SK-MEL-5) | GI50 (HCT-116) | GI50 (LOX IMVI) | GI50 (SF-295) | GI50 (M14) | GI50 (BT-549) | GI50 (EKVX) | GI50 (SK-OV-3) |
| --- | --- | --- | --- | --- | --- | --- | --- | --- | --- | --- | --- | --- | --- | --- | --- | --- | --- | --- | --- |
| CC(=O)Nc1ccc(-c2nc3ccccc3s2)cc1 | 64.7 µM (inactive) | 4.9 µM (inactive) | 29.4 µM (inactive) | 22.8 µM (inactive) | 30.8 µM (inactive) | 67.5 µM (inactive) | 81.7 µM (inactive) | 26.2 µM (inactive) | 57.8 µM (inactive) | 73.8 µM (inactive) | 66.7 µM (inactive) | > 100 µM (inactive) | 86.7 µM (inactive) | 36.9 µM (inactive) | 29.6 µM (inactive) | 63.1 µM (inactive) | > 10 µM (inactive) | 85.1 µM (inactive) | 21.2 µM (inactive) |
| CC(=O)N1C(Nc2cnc3ccccc3c2)CCN1c1ccccc1 (configuration not stated) | > 10 µM (inactive) | > 10 µM (inactive) | > 10 µM (inactive) | > 10 µM (inactive) | > 10 µM (inactive) | > 10 µM (inactive) | 6.37 µM (inactive) | > 10 µM (inactive) | > 10 µM (inactive) | > 10 µM (inactive) | – | > 10 µM (inactive) | > 10 µM (inactive) | 5.65 µM (inactive) | > 10 µM (inactive) | > 10 µM (inactive) | > 10 µM (inactive) | > 10 µM (inactive) | > 10 µM (inactive) |
| Cc1cc(O)c(O)c(Oc2cc(C)cc(O)c2O)c1 | 21.9 µM (inactive) | 23.3 µM (inactive) | 13.4 µM (inactive) | 32 µM (inactive) | 75.7 µM (inactive) | 13.1 µM (inactive) | 1.99 µM (inactive) | 23.3 µM (inactive) | 17.1 µM (inactive) | 32 µM (inactive) | 11.7 µM (inactive) | 33.9 µM (inactive) | 14.5 µM (inactive) | 4.57 µM (inactive) | 14.8 µM (inactive) | 14.3 µM (inactive) | 20.1 µM (inactive) | 16 µM (inactive) | 36.8 µM (inactive) |
| COC(=O)[C@@H]1[C@H]2CC[C@]3(C)[C@@H](OC(C)=O)CC[C@H]3[C@@H]2CC[C@H]1C1(C)SCCS1 | 26.8 µM (inactive) | 35.9 µM (inactive) | 25.1 µM (inactive) | 41.6 µM (inactive) | 37.2 µM (inactive) | 27 µM (inactive) | 18.2 µM (inactive) | 37 µM (inactive) | 75 µM (inactive) | 35.6 µM (inactive) | 28.2 µM (inactive) | 8.77 µM (inactive) | 19.6 µM (inactive) | 19.4 µM (inactive) | 24.8 µM (inactive) | 21.5 µM (inactive) | 18.4 µM (inactive) | 25.1 µM (inactive) | 53.6 µM (inactive) |
| CC(C)OC(=O)c1ccc(NCc2cc(O)ccc2O)cc1Cl | 2.57 µM (inactive) | 9.08 µM (inactive) | 4.89 µM (inactive) | 0.861 µM (active) | 6.73 µM (inactive) | 3.47 µM (inactive) | 0.364 µM (active) | 1.75 µM (inactive) | 6.98 µM (inactive) | 3.59 µM (inactive) | 5.26 µM (inactive) | 2.73 µM (inactive) | 8.87 µM (inactive) | 3.27 µM (inactive) | 12.2 µM (inactive) | 7.13 µM (inactive) | 0.327 µM (active) | 4.92 µM (inactive) | 7.21 µM (inactive) |
| Clc1ccc(-c2nc3cc(C45CC6CC(CC(C6)C4)C5)ccc3[nH]2)cc1 | 14.3 µM (inactive) | 54 µM (inactive) | 60.5 µM (inactive) | > 59.3 µM (inactive) | > 100 µM (inactive) | 18.5 µM (inactive) | 2.07 µM (inactive) | 51.6 µM (inactive) | 40.2 µM (inactive) | 31.7 µM (inactive) | 31.3 µM (inactive) | 7.18 µM (inactive) | 22.5 µM (inactive) | 18.3 µM (inactive) | 57.7 µM (inactive) | 17 µM (inactive) | 56.6 µM (inactive) | > 94.2 µM (inactive) | > 100 µM (inactive) |
| CC1SCCc2nc3ccccc3n21 (configuration not stated) | > 100 µM (inactive) | > 100 µM (inactive) | > 100 µM (inactive) | > 100 µM (inactive) | > 100 µM (inactive) | > 100 µM (inactive) | > 100 µM (inactive) | > 100 µM (inactive) | > 100 µM (inactive) | > 100 µM (inactive) | > 100 µM (inactive) | > 100 µM (inactive) | > 100 µM (inactive) | > 100 µM (inactive) | > 100 µM (inactive) | > 100 µM (inactive) | > 100 µM (inactive) | > 100 µM (inactive) | > 100 µM (inactive) |
